{"source": "paper PMC11391341", "about": "“Rational design and in vitro testing of new urease inhibitors to prevent urinary catheter blockage” (RSC Medicinal Chemistry, 2024)", "key": {"[1]": {"biological_target": "T1, urease expressed in whole cell Proteus mirabilis (Proteus mirabilis, UniProt P17086)", "T1 construct": "Urease in P. mirabilis is intracellular; endogenous in cells; host or cells: Proteus mirabilis B4 (Jenkins Group collection, University of Bath), whole cells", "T1 sequence (P17086 whole entry)": "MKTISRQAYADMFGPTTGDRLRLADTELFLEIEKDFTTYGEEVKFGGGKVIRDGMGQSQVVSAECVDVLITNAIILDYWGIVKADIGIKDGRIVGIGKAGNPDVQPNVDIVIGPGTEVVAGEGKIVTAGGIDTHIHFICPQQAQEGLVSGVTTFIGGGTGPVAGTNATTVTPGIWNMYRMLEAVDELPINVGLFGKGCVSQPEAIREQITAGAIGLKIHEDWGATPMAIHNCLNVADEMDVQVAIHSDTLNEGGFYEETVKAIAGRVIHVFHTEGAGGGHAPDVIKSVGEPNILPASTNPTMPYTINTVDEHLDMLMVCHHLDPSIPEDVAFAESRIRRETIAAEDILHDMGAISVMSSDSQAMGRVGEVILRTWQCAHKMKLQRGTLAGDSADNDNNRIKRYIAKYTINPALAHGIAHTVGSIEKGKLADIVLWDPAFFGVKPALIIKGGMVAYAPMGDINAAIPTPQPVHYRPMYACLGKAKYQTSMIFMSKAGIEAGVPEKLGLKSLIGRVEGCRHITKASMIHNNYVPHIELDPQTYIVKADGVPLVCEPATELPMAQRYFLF", "assay": "Urease activity assay (Berthelot), whole-cell P. mirabilis", "type": "cell-based", "settings": "for A1 (dose-response fit parameter) / A2 (dose-response fit parameter): % urease activity; for A1 (dose-response fit parameter) / A2 (dose-response fit parameter) / LOGx0 (dose-response fit): Proteus mirabilis whole cell, Supplementary Table 3; for fold lower IC50 than AHA: whole cell P. mirabilis urease", "method": "The in vitro assay used to measure the urease activity was the Berthelot assay, which measure the accumulation of ammonia.[54,55] Compounds were tested using whole-cell P. mirabilis B4 (from the Jenkins Group collection, University of Bath). P. mirabilis was cultured overnight, 37 °C with 200 rpm shaking in 10 mL of Luria-Bertani broth (LB, Merck, Germany). The overnight culture was centrifuged, 3100 g, 10 min, at 4 °C (5810 R Eppendorf); the supernatant was discarded, and the pellet resuspended in phosphate buffer saline (PBS, Fisher Scientific, UK). In each well of a 96-well plate (Corning) 10 μL of 0.5% sulfuric acid was added. P. mirabilis (100 μL, 0.004 mg mL^−1) in phosphate buffer was incubated with the desired compound concentration and urea (100 μL, 50 mM in phosphate buffer) for 30 min at 37 °C.\nExperiments were run in triplicate of two technical replicates (n = 6), with 10-fold dilutions of the compounds including a positive and negative control. To each well, 20 μL of 60 mM sodium hydroxide is added. Solution A (50 μL, 106 mM phenol, 191 μM sodium nitroprusside) and solution B (50 μL, 125 mM sodium hydroxide, 125 mM sodium hypochlorite) were added to each well and the plate was incubated for 30 min at 37 °C. The absorbance of the wells was read at 636 nm (SPECTROstar Omega BMG LabTech, Germany). Urease activity was calculated using eqn (1). IC50 was determined using non-linear regression (GraphPad Prism v9).1 [drawing 1]"}, "[2]": {"assay": "Delivery across the catheter balloon into artificial urine (UV-vis)", "type": "physicochemical", "settings": "37 °C, 12 h", "method": "Delivery through the permeable balloon was measured using UV-vis spectroscopy with a quartz cuvette (pathlength 1 cm) (Agilent Cary 60 UV-vis spectrometer). Calibration curves for AHA (Sigma) and N,N′-bis(3-pyridinylmethyl)thiourea (Flurochem, Bis-TU (A11)) were prepared using absorbances 235 nm and 239 nm, respectively (Fig. S5 ^†). Sterile 50 mL beakers were used to mimic the bladder; catheters were inflated with compound solutions, AHA (320 mM) or Bis-TU (85 mM). Biomodics IPN catheters were compared to standard all-silicone catheters (Tiga-Med, Germany). Beakers were filled with artificial urine, prepared according to Nzakizwanayo et al., 30 mL was added to the beakers which were sealed with parafilm and incubated at 37 °C.[45] Every hour for 12 h, 1 mL was removed from the artificial urine surrounding the catheter balloon and the absorbance spectra was measured. The 1 mL was returned to the beaker, so the volume remained constant. The quantity of compound released over time was determined using the calibration curves. Limit of detection (LOD) was calculated by eqn (2), where σ is the standard deviation of the lowest concentration.2 [drawing 2]"}, "[3]": {"tested_on": "P. mirabilis B4", "assay": "In vitro bladder model of the catheterized urinary tract", "type": "cell-based, Proteus mirabilis", "settings": "balloon inflated with 20 mM compound, Biomodics IPN catheter", "method": "The in vitro bladder model of a catheterized urinary tract enables the simulation of the crystalline biofilm and measurement of the blockage of the catheter caused by a P. mirabilis infection.[44,45] The artificial bladders were infected with a high inoculum of bacteria to mimic a late-stage CAUTI, average inoculation was 3.36 × 10^7 CFU mL^−1. Each model was catheterized with a Biomodics IPN catheter, and the balloons were inflated with 20 mM AHA in a 9 : 1 mixture of saline and DMSO; 20 mM Bis-TU in a 9 : 1 mixture of saline and DMSO; and the control bladder a 9 : 1 mixture of saline and DMSO. The artificial bladders were allowed to equilibrate over 18 h before inoculation. There is approximately a four-fold dilution during the diffusion of the compound in the artificial urine (∼5 mM at the start), however, this concentration changes once the pumps start because of the continual dilution from the filling of the bladder from the ‘kidneys’ and the drainage via the catheter. Monitoring of the pH and CFU mL^−1 in the bladder allowed tracking of the experiment (Fig. 6A and B). […] The blockage of the catheters was the end of the experiment and allowed determination of whether the compounds could increase the lifetime of the catheter (Fig. 6C).\nIn vitro bladder models were set up as described by Nzakizwanayo et al., the flow rate was set to run at 0.8 mL min^−1 using a Watson-Marlow 323S/D (030.3134.3DU) pump.[45] The artificial bladders were maintained at 37 °C and catheterized with Biomodics IPN catheters (donated by Biomodics ApS). Balloons were inflated with 10 mL of the following solutions: control bladder: a 9 : 1 mixture of saline (150 mM sodium chloride) and DMSO; Bis-TU bladder: 20 mM Bis-TU in a 9 : 1 mixture of saline and DMSO; and AHA bladder: 20 mM AHA in a 9 : 1 mixture of saline and DMSO. The models were set up and filled with artificial urine until they started to drain, the pump was then paused, and the compound solution allowed to equilibrate with the artificial urine in the bladder for 18 h. P. mirabilis B4 (from the Jenkins Group bacteria collection) was grown at 37 °C overnight with 200 rpm shaking in 10 mL of LB (Merck, Germany). […] Inoculation and CFU was determined by the Miles and Misra quantification technique.[56] At regular time intervals during the experiment, a sample was taken aseptically from each artificial bladder for bacterial quantification and to measure the pH. The end of the experiment was determined when the bladders blocked. Additionally, the artificial bladders were monitored by time-lapse photography overnight using a Nikon D3100 camera with photos taken every 2 min."}, "[4]": {"tested_on": "E. coli NSM59", "assay": "Minimum inhibitory concentration (MIC) assay, E. coli", "type": "cell-based, Escherichia coli", "method": "(§1) The compound was dissolved in sterile water with 5% (v/v) DMSO. To the first column on a 96-well plate (Corning, UK), 200 μL of compound was added, it was then serially diluted two-fold (100 μL) across the plate to column 10. A subculture of P. mirabilis (1 × 10^6 CFU mL^−1) or E. coli NSM59 (1 × 10^6 CFU mL^−1, from the Jenkins Group collection, University of Bath), 100 μL, was added to all columns 1–10. LB broth only was added to column 11, the negative control and 200 μL of P. mirabilis/E. coli subculture was added to column 12, the positive control. The plate was incubated at 37 °C for 18 h, using a SPECTROstar Omega plate reader (BMJ LabTech) the absorbance at 600 nm was measured at regular time points during the 18 h incubation. The plate was shaken for 10 s, at 200 rpm prior to a reading being taken. The MIC was defined as the lowest concentration of compound that inhibited growth and the highest concentration that permitted bacterial growth. Initially, this was done through visualization of the plate after 18 h but also through examination of the growth curves measured at OD600."}, "[5]": {"tested_on": "P. mirabilis B4", "assay": "Minimum inhibitory concentration (MIC) assay, P. mirabilis", "type": "cell-based, Proteus mirabilis", "method": "as §1"}, "[6]": {"tested_on": "HepG2 cells", "assay": "HepG2 mammalian cell viability (MTT assay)", "type": "cell-based", "settings": "for survival of HepG2 cells: 10 mM, 24 h incubation", "method": "Freezer stocks of HepG2 cells were defrosted and re-suspended in Dulbecco's Eagle medium (DMEM) complete (Gibco, this contains minimum essential media (MEM, Gibco)). A T75 flask (Nunc) was seeded with 10 mL of complete DMEM. Cells were grown for 3–4 days, a 37 °C, 5% CO2, to achieve adherent cells. Old media was removed and 5 mL of PBS added to wash the cells, this was then aspirated. Cells were incubated with 3 mL, 0.25% trypsin (Gibco), and PBS (previously warmed to 37 °C) for 7 min at 37 °C. After incubation cells were checked using a microscope (Nikon TMS inverted phase contrast) to confirm that they were no longer adherent. Cells were dissociated with 4 mL of media and re-suspended by pipetting 10 mL approximately 20 times. Cells were centrifuged for 3 min at 1000 rpm, media was aspirated, and pellet was resuspended in 1 mL of media. Cells were counted using a hemocytometer and new flasks were reseeded with 200 μL of cells to 10 mL of media. To maintain stocks, cells were sub-cultured every 2–3 days.\nCompounds, AHA and Bis-TU, were prepared at 10 mM with 1% DMSO in DMEM media. Varying concentrations of compounds were prepared by serial dilution across at 96-well plate (100 μL). MTT (Invitrogen) assay was used to measure the metabolic activity of the HepG2 cells. MTT (1 mg mL^−1) in media was filter sterilized and cell culture plates, 96-well (Nunc), were seeded with 1 × 10^4 cells per well and grown for 24 h. Media/compound was removed and MTT (100 μL) was added for 60 min at 37 °C and then removed. Isopropanol (150 μL) was added and the plate was incubated in foil for 15 min on an orbital shaker. Absorbance was measured at 590 nm (reference filter at 620 nm) (Sunrise, Tecan). The % survival was calculated as per eqn (4).4 [drawing 4]"}, "[7]": {"assay": "Solubility (statement in conclusions)", "type": "physicochemical"}}, "note": "Entries after “also recorded” stand apart in the source; their conditions may differ. Like-named read-outs stand apart in the source and are kept apart here."}
{"compound": "NC(=O)CS", "note": "[Compound 2-MA, 2-mercaptoacetamide, reference compound]", "values": [{"measurement": "IC50", "setting": "[1]; whole cell Proteus mirabilis, ± standard deviation", "value": "did not fit to a sigmoidal dose–response curve; also recorded: No fit"}]}
{"compound": "Acetohydroxamic acid [AHA, reference compound]", "values": [{"measurement": "release across balloon of Biomodics IPN catheter", "setting": "[2]", "value": "zero order kinetics release"}, {"measurement": "release across balloon of standard silicone catheter", "setting": "[2]", "value": "no release"}, {"measurement": "quantity of bacteria (CFU mL^−1) in the bladder model", "setting": "[3]", "value": "comparable across all bladders"}, {"measurement": "inhibitory effect on growth", "setting": "[4]", "value": "only a modest inhibitory effect"}, {"measurement": "A1 (dose-response fit parameter)", "setting": "[1]", "value": 1.739, "unit": "%"}, {"measurement": "A2 (dose-response fit parameter)", "setting": "[1]", "value": 91.3, "unit": "%"}, {"measurement": "LOGx0 (dose-response fit)", "setting": "[1]", "value": -4.436}, {"measurement": "IC50", "setting": "[1]; whole cell Proteus mirabilis, ± standard deviation, read-out: IC50", "value": 36.6, "unit": "µM"}, {"measurement": "inhibitory effect on growth", "setting": "[5]", "value": "only a modest inhibitory effect"}, {"measurement": "survival of HepG2 cells", "setting": "[6]", "value": "affect the survival"}]}
{"compound": "NC(=S)NCc1ccccc1", "note": "[Compound A6, benzylthiourea]", "values": [{"measurement": "IC50", "setting": "[1]", "value": 22.7, "unit": "µM"}, {"measurement": "A1 (dose-response fit parameter)", "setting": "[1]", "value": 5.57, "unit": "%"}, {"measurement": "A2 (dose-response fit parameter)", "setting": "[1]", "value": 78.71, "unit": "%"}, {"measurement": "LOGx0 (dose-response fit)", "setting": "[1]", "value": -4.644}]}
{"compound": "S=C(NCc1cccnc1)NCc1cccnc1", "note": "[Compound A11, N,N′-bis(3-pyridinylmethyl)thiourea]", "values": [{"measurement": "release across balloon of Biomodics IPN catheter", "setting": "[2]", "value": "zero order kinetics release"}, {"measurement": "release across balloon of standard silicone catheter", "setting": "[2]", "value": "no release"}, {"measurement": "catheter blockage time (lifetime of the catheter)", "setting": "[3]", "value": "significantly outperformed the clinical standard AHA, and the control"}, {"measurement": "pH in the bladder model", "setting": "[3]", "value": "lower than that of the AHA and control bladders"}, {"measurement": "quantity of bacteria (CFU mL^−1) in the bladder model", "setting": "[3]", "value": "comparable across all bladders"}, {"measurement": "inhibitory effect on growth", "setting": "[4]", "value": "only a modest inhibitory effect"}, {"measurement": "IC50", "setting": "[1]", "value": 1.4, "unit": "µM"}, {"measurement": "A1 (dose-response fit parameter)", "setting": "[1]", "value": -6.896, "unit": "%"}, {"measurement": "A2 (dose-response fit parameter)", "setting": "[1]", "value": 85.9, "unit": "%"}, {"measurement": "LOGx0 (dose-response fit)", "setting": "[1]", "value": -5.851}, {"measurement": "fold lower IC50 than AHA", "setting": "[1]", "value": "ca. 25 fold"}, {"measurement": "inhibitory effect on growth", "setting": "[5]", "value": "only a modest inhibitory effect"}, {"measurement": "solubility", "setting": "[7]", "value": "relatively low solubility"}, {"measurement": "survival of HepG2 cells", "setting": "[6]", "value": "affect the survival"}, {"measurement": "effect on HepG2 cells, AHA vs Bis-TU", "setting": "[6]; concentrations below 1.25 mM, 24 h", "value": "no difference"}]}
{"compound": "NC(=S)Nc1ccccc1", "note": "[Compound A5, N-phenylthiourea]", "values": [{"measurement": "IC50", "setting": "[1]", "value": 9.66, "unit": "µM"}, {"measurement": "A1 (dose-response fit parameter)", "setting": "[1]", "value": -2834, "unit": "%"}, {"measurement": "A2 (dose-response fit parameter)", "setting": "[1]", "value": 141.8, "unit": "%"}, {"measurement": "LOGx0 (dose-response fit)", "setting": "[1]", "value": -5.015}]}
{"compound": "O=c1c(O)c(-c2ccc(O)c(O)c2)oc2cc(O)cc(O)c12", "note": "[Quercetin, quercetin, reference compound]", "values": [{"measurement": "IC50", "setting": "[1]", "value": 0.866, "unit": "µM"}, {"measurement": "A1 (dose-response fit parameter)", "setting": "[1]", "value": -6.874, "unit": "%"}, {"measurement": "A2 (dose-response fit parameter)", "setting": "[1]", "value": 68.53, "unit": "%"}, {"measurement": "fold lower IC50 than AHA", "setting": "[1]", "value": "ca. 25 fold"}]}
